PubChem BioAssay (NCI)
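Each compound was tested at five concentrations against cells in 96-well plates for 48 hours. GI50 marks 50% less growth. Definition used: TGI = concentration required for complete inhibition of growth.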

Legend:
Assay in all cases: NCI tumour cell line growth inhibition, 48 h
[1] = test system: HOP-92 NSCLC
[2] = test system: SK-MEL-28 melanoma
[3] = test system: COLO 205 colon
[4] = test system: HL-60(TB) leukemia
[5] = test system: HOP-62 NSCLC
[6] = test system: HCT-116 colon
[7] = test system: HCC-2998 colon
[8] = test system: NCI-H460 lung
[9] = test system: SK-MEL-2 melanoma
[10] = test system: TK-10 renal
[11] = test system: SF-268 CNS
[12] = test system: K-562 leukemia
[13] = test system: MDA-MB-435
[14] = test system: PC-3 prostate
[15] = test system: OVCAR-5 ovarian
[16] = test system: RXF 393 renal
[17] = test system: CAKI-1 renal
[18] = test system: MALME-3M melanoma
[19] = test system: DU-145 prostate
[20] = test system: A498 renal
[21] = test system: RPMI-8226 leukemia
[22] = test system: MCF7 breast
[23] = test system: SK-OV-3 ovarian
[24] = test system: NCI-H226 lung
[25] = test system: ACHN renal
[26] = test system: HCT-15 colon
[27] = test system: SNB-19 CNS
[28] = test system: SN12C renal
[29] = test system: OVCAR-8 ovarian
[30] = test system: LOX IMVI melanoma
[31] = test system: EKVX NSCLC
[32] = test system: MDA-MB-468 breast
[33] = test system: A549 NSCLC
[34] = test system: UO-31 renal
[35] = test system: HS 578T breast
[36] = test system: HT29 colon
[37] = test system: MDA-MB-231 breast
[38] = test system: UACC-62 melanoma
[39] = test system: CCRF-CEM leukemia
[40] = test system: BT-549 breast
[41] = test system: SF-539 CNS
[42] = test system: NCI-H23 lung
[43] = test system: IGROV1 ovarian
[44] = test system: SF-295 CNS
[45] = test system: T-47D breast
[46] = test system: SR leukemia
[47] = test system: NCI-H522 lung
[48] = test system: KM12 colon
[49] = test system: SK-MEL-5 melanoma
[50] = test system: NCI/ADR-RES ovarian
[51] = test system: SNB-75 CNS
[52] = test system: OVCAR-4 ovarian
[53] = test system: U251 CNS
[54] = test system: 786-0 renal
[55] = test system: OVCAR-3 ovarian
[56] = test system: M14 melanoma
[57] = test system: MOLT-4 leukemia
[58] = test system: SW-620 colon
[59] = test system: UACC-257 melanoma

SMILES: O=C(COc1ccc(NC(=O)Nc2ccc(Cl)c(Cl)c2)cc1)N=Nc1c(O)[nH]c2ccc(Cl)cc12
- GI50 [1]: 2180 nM
- TGI [1]: 4.87 µM
- GI50 [2]: 1890 nM
- TGI [2]: 3.86 µM
- GI50 [3]: 1760 nM
- TGI [3]: 3.35 µM
- GI50 [4]: 2050 nM
- TGI [4]: 5.31 µM
- GI50 [5]: 1780 nM
- TGI [5]: 3.65 µM
- GI50 [6]: 1850 nM
- TGI [6]: 3.47 µM
- GI50 [7]: 2580 nM
- TGI [7]: 7.1 µM
- GI50 [8]: 1920 nM
- TGI [8]: 4.07 µM
- GI50 [9]: 2070 nM
- TGI [9]: 4.83 µM
- GI50 [10]: 2860 nM
- TGI [10]: 9.89 µM
- GI50 [11]: 2230 nM
- TGI [11]: 5.18 µM
- GI50 [12]: 2770 nM
- TGI [12]: 7.1 µM
- GI50 [13]: 1800 nM
- TGI [13]: 3.68 µM
- GI50 [14]: 2100 nM
- TGI [14]: 5.07 µM
- GI50 [15]: 2110 nM
- TGI [15]: 5.39 µM
- GI50 [16]: 1620 nM
- TGI [16]: 3.13 µM
- GI50 [17]: 2210 nM
- TGI [17]: 4.89 µM
- GI50 [18]: 1680 nM
- TGI [18]: 3.1 µM
- GI50 [19]: 2960 nM
- TGI [19]: 8.81 µM
- GI50 [20]: 2060 nM
- TGI [20]: 5.28 µM
- GI50 [21]: 2440 nM
- TGI [21]: 6.2 µM
- GI50 [22]: 2080 nM
- TGI [22]: 5 µM
- GI50 [23]: 2190 nM
- TGI [23]: 4.98 µM
- GI50 [24]: 2060 nM
- TGI [24]: 4.59 µM
- GI50 [25]: 3.23 µM
- TGI [25]: 11.4 µM
- GI50 [26]: 7.94 µM
- TGI [26]: > 100 µM
- GI50 [27]: 2660 nM
- TGI [27]: 7.49 µM
- GI50 [28]: 1930 nM
- TGI [28]: 3.67 µM
- GI50 [29]: 2300 nM
- TGI [29]: 5.36 µM
- GI50 [30]: 1730 nM
- TGI [30]: 3.23 µM
- GI50 [31]: 2650 nM
- TGI [31]: 9.28 µM
- GI50 [32]: 1840 nM
- TGI [32]: 3.54 µM
- GI50 [33]: 2610 nM
- TGI [33]: 7.01 µM
- GI50 [34]: 22.5 µM
- TGI [34]: > 100 µM
- GI50 [35]: 2330 nM
- TGI [35]: 6.36 µM
- GI50 [36]: 1890 nM
- TGI [36]: 3.58 µM
- GI50 [37]: 1930 nM
- TGI [37]: 3.57 µM
- GI50 [38]: 1980 nM
- TGI [38]: 4.45 µM
- GI50 [39]: 2270 nM
- TGI [39]: 5.54 µM
- GI50 [40]: 1620 nM
- TGI [40]: 3.3 µM
- GI50 [41]: 1780 nM
- TGI [41]: 3.4 µM
- GI50 [42]: 2080 nM
- TGI [42]: 4.4 µM
- GI50 [43]: 2310 nM
- TGI [43]: 5.73 µM
- GI50 [44]: 1810 nM
- TGI [44]: 3.54 µM
- GI50 [45]: 2010 nM
- TGI [45]: 4.76 µM
- GI50 [46]: 2180 nM
- TGI [46]: 9.97 µM
- GI50 [47]: 1740 nM
- TGI [47]: 3.57 µM
- GI50 [48]: 1980 nM
- TGI [48]: 4.38 µM
- GI50 [49]: 1720 nM
- TGI [49]: 3.18 µM
- GI50 [50]: > 100 µM
- TGI [50]: > 100 µM
- GI50 [51]: 1580 nM
- TGI [51]: 3.49 µM
- GI50 [52]: 2260 nM
- TGI [52]: 6.15 µM
- GI50 [53]: 1900 nM
- TGI [53]: 3.79 µM
- GI50 [54]: 1780 nM
- TGI [54]: 3.8 µM
- GI50 [55]: 1970 nM
- TGI [55]: 4.1 µM
- GI50 [56]: 1810 nM
- TGI [56]: 3.71 µM
- GI50 [57]: 1840 nM
- TGI [57]: 4.5 µM
- GI50 [58]: 1790 nM
- TGI [58]: 3.59 µM
- GI50 [59]: 2000 nM
- TGI [59]: 4.15 µM
